Laboratory results from publication PMC4978154, “Phase I metabolites of mephedrone display biological activity as substrates at monoamine transporters” (British Journal of Pharmacology, 2016).
Read-outs that look alike come from different tables or passages of the source.

What was measured:
[1] = target: T1, hNET (Homo sapiens, UniProt P23975); assay: Transporter uptake inhibition in HEK293 cells expressing hNET; type: cell-based; conditions: [3H]-MPP+ uptake; for IC50: mean (95% confidence interval)
T1 construct: expressed in transfected cells
Procedure: (§1) The generation of HEK293 cells stably expressing the human isoforms of DAT (hDAT) and NET (hNET) was carried out as described previously (Scholze et al., 2002). For SERT, the human isoform (hSERT) was cloned in frame with yellow fluorescent protein (Schmid et al., 2001). The generation of a stable cell line was performed as described by Hilber and colleagues (Hilber et al., 2005). HEK293 cells were maintained in humidified atmosphere (5% CO2, 37°C) in DMEM, supplemented with 10% heat‐inactivated FBS and penicillin (100 u 100 mL^−1) and streptomycin (100 μg 100 mL^−1). Selection pressure was maintained by adding geneticin (50 μg·mL^−1) to the cell culture media.
(§2) Uptake experiments were conducted as described previously (Sitte et al., 2001) with minor modifications. In brief, HEK293 cells expressing hDAT, hNET or hSERT were seeded into poly‐D‐lysine (PDL) coated 96‐well plates at a density of 40 000 cells per well. The next day, DMEM was aspirated and replaced with Krebs HEPES buffer (KHB, 25 mM HEPES, 120 mM NaCl, 5 mM KCl, 1.2 mM CaCl2, and 1.2 mM MgSO4, 5 mM D‐glucose, pH adjusted to 7.3 with NaOH) (200 μL per well), and cells were pre‐incubated with various concentrations of mephedrone or its metabolites for 5 min (50 μL per well). Subsequently, 0.1 μM of [^3H]‐5‐HT or 0.02 μM of [^3H]‐MPP^+ were added, and uptake was terminated after 1 (hSERT) or 3 min (hDAT, hNET) by washing the cells with 200 μL of ice‐cold KHB. Cells were lysed with 1% SDS, and tritium uptake was determined by scintillation counting. Nonspecific uptake was determined in the presence of 10 μM paroxetine (hSERT) or 10 μM mazindol (hDAT and hNET).
Calculations were performed using Microsoft Excel® 2010 (Microsoft Corporation, Redmond, WA, USA) and […] PRISM 5.0. (GraphPad Software Inc., La Jolla, CA, USA). IC50 values for uptake inhibition and EC50 values for release were determined by nonlinear regression fits. Release data expressed as AUC were analysed by one‐way ANOVA followed by Bonferroni's multiple comparison test. Microdialysis and locomotor data were analysed by two‐way ANOVA (drug treatment × time) followed by Bonferroni's test. The effect of monensin treatment on basal efflux of tritiated substrate was analysed with the Mann–Whitney test. P values less than 0.05 (i.e. P < 0.05) were considered significant. The data and statistical analysis comply with the recommendations on experimental design and analysis in pharmacology (Curtis et al., 2015).

[2] = target: T2, hDAT (Homo sapiens, UniProt Q01959); assay: Transporter uptake inhibition in HEK293 cells expressing hDAT; type: cell-based; conditions: [3H]-MPP+ uptake; for IC50: mean (95% confidence interval)
T2 construct: expressed in transfected cells
Procedure: as §1, §2
(§3) Calculations were performed using Microsoft Excel® 2010 (Microsoft Corporation, Redmond, WA, USA) and GRAPHPAD PRISM 5.0. (GraphPad Software Inc., La Jolla, CA, USA). IC50 values for uptake inhibition and EC50 values for release were determined by nonlinear regression fits. Release data expressed as AUC were analysed by one‐way ANOVA followed by Bonferroni's multiple comparison test. Microdialysis and locomotor data were analysed by two‐way ANOVA (drug treatment × time) followed by Bonferroni's test. The effect of monensin treatment on basal efflux of tritiated substrate was analysed with the Mann–Whitney test. P values less than 0.05 (i.e. P < 0.05) were considered significant. The data and statistical analysis comply with the recommendations on experimental design and analysis in pharmacology (Curtis et al., 2015).

[3] = tested on: rats; assay: Locomotor activity (photobeam breaks) during microdialysis; type: in vivo; conditions: rat; for effect on motor behaviour (activity): 1 and 3 mg·kg−1 i.v.; for effect on motor activity: 3 mg·kg−1 i.v.
Procedure: (§4) In vivo microdialysis procedures were carried out as previously described with minor modifications (Baumann et al., 2012). Briefly, male rats anaesthetized with sodium pentobarbital (60 mg·kg^−1, i.p.) received surgically implanted jugular catheters, and intracerebral guide cannulae aimed at the nucleus accumbens (AP +1.6 mm, ML −1.7 mm relative to bregma; −6.2 mm relative to dura) (Paxinos and Watson, 2007). After a 7–10 day recovery, each rat was placed into a chamber equipped with photobeams for the detection of motor parameters (TruScan, Harvard Apparatus, Holliston, MA, USA) and allowed to acclimatize overnight. Food and water were available ad libitum during the acclimatization period. On the following morning, catheters were attached to PE 50 extension tubes, and 0.5 × 2 mm microdialysis probes (CMA/12, Harvard Apparatus, Holliston, MA, USA) were inserted into the guide cannulae. Ringers' solution (150 mM NaCl, 2.8 mM KCl and 2.0 mM CaCl2) was perfused through the probes at 0.6 μL·min^−1 for 3 h. To commence experiments, dialysate samples ([…]) were collected at 20 min intervals, and drug or saline treatments were given after three baseline samples were obtained. Rats received two sequential i.v. injections of mephedrone or its metabolites, with 1 mg·kg^−1 administered at time zero, followed by 3 mg·kg^−1 60 min later. Saline was administered using the same schedule in a separate group of rats. Dialysate concentrations of dopamine and 5‐HT were quantified using HPLC coupled to electrochemical detection (Baumann et al., 2012). Chromatographic data were exported to an Empower software system (Waters, Inc., Milford, MA, USA) for peak identification, integration and analysis.
as §3

[4] = tested on: extracellular dopamine in rat nucleus accumbens; assay: Microdialysis in rat nucleus accumbens, dialysate dopamine; type: in vivo; conditions: versus saline
Procedure: as §4
Correct probe placements were assessed after the microdialysis experiments. Rats were killed by CO2 narcosis then decapitated. Brains were quickly removed and immersion fixed in 10% paraformaldehyde for 1 week. Subsequently, brains were sectioned on a cryostat, and the location of each probe tip was verified by inspection of photographic images of the brain taken with a digital camera using the macro lens setting.
as §3

[5] = 3 mg·kg−1 i.v. (60 min after 1 mg·kg−1)
[6] = IC50 on uptake mediated by hNET
[7] = IC50 on uptake mediated by hDAT

T2 sequence (Q01959 whole entry): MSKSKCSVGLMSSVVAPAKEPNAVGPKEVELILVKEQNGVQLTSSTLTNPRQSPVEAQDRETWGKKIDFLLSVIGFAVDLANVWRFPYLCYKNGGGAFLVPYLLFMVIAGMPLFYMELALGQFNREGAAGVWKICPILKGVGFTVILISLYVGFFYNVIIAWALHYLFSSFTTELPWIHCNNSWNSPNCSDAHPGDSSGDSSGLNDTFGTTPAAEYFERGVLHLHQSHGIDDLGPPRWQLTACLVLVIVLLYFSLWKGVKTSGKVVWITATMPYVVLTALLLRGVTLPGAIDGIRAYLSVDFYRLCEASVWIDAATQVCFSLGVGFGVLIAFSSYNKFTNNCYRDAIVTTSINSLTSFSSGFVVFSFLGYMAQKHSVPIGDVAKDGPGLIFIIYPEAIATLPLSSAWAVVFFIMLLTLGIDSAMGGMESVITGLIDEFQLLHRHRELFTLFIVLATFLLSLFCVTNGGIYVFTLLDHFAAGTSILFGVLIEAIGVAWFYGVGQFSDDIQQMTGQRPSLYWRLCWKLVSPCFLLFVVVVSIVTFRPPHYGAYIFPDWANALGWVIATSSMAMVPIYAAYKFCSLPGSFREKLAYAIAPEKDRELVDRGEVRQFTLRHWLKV
T1 sequence (P23975 whole entry): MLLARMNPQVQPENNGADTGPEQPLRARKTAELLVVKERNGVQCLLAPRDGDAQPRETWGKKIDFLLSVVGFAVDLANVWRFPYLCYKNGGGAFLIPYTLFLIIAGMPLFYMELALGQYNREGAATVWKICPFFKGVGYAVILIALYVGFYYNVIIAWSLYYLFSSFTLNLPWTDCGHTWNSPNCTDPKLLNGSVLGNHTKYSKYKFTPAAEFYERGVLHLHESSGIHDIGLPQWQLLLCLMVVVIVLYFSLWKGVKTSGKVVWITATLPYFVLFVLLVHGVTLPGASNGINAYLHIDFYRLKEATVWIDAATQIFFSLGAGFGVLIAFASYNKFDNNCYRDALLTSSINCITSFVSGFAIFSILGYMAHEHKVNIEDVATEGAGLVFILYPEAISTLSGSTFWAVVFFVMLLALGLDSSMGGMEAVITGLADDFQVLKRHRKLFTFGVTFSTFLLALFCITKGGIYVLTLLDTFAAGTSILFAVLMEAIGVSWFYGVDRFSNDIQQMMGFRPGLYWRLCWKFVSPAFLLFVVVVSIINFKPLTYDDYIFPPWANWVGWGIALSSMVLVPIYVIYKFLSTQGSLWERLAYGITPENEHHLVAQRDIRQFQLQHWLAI

Row | SMILES | efficacy of uptake inhibition at hNET [1] | IC50 ([1]; read-out: IC50 on uptake mediated by hNET) [µM] | efficacy of uptake inhibition at hDAT [2] | IC50 ([2]; read-out: IC50 on uptake mediated by hDAT) [µM] | effect on motor behaviour (activity) [3] | effect on dialysate dopamine ([4]; 1 mg·kg−1 i.v.) | effect on dialysate dopamine [4, 5] | IC50 [1, 6] [µM] | IC50 [2, 7] [µM] | effect on motor activity [3]
1 | CNC(C)C(=O)c1ccc(CO)cc1.Cl (stereo not shown) [4‐OH‐mephedrone, 1‐(4‐(hydroxymethyl)phenyl)‐2‐(methylamino)propan‐1‐one hydrochloride] | fully efficacious inhibitors of uptake | 4.85 | fully efficacious inhibitors of uptake | 2.92 | did not | no significant impact | no significant impact | – | – | –
2 | CNC(C)C(=O)c1ccc(C)cc1.Cl (stereo not shown) [Mephedrone, 2‐Methylamino‐1‐(p‐tolyl)propan‐1‐one hydrochloride] | fully efficacious inhibitors of uptake | – | fully efficacious inhibitors of uptake | – | increased activity | increased dopamine | elevated dopamine | 2.77 | 0.77 | significantly stimulated motor activity
3 | Cc1ccc(C(=O)C(C)N)cc1.Cl (stereo not shown) [Nor‐mephedrone, 2‐amino‐1‐(p‐tolyl)propan‐1‐one hydrochloride] | fully efficacious inhibitors of uptake | – | fully efficacious inhibitors of uptake | – | increased activity | – | elevated dopamine | 5.46 | 6.35 | significantly stimulated motor activity
